In brackets after ≈: the same amount, converted by molar mass.
Tests used:
[1] = Thermodynamic aqueous solubility of the most stable crystals; assay type: physicochemical; settings: for solubility at 48 h: phosphate buffer/EtOH (6:4), aqueous with cosolvent or surfactant or cyclodextrin, thermodynamic from solid, mixture of 0.067 M phosphate buffer (pH 6.8) and EtOH (6:4), shaken 48 h at 4 °C, most stable crystals; for Fold more soluble than symmetric isomer 6: relative to 6
Experimental: The crystals were ground with an agate mortar and suspended in a mixture of 0.067 M phosphate buffer (pH 6.8) and EtOH (6:4). The suspension was shaken for 48 h at 4 °C, then filtered through a Millipore Millex-LG filter (0.20 μm). The filtrate was diluted in DMF and subjected to HPLC. The solubility was calculated by the absolute calibration curve method. We used a mixed solvent because the solubility in 0.067 M phosphate buffer (pH 6.8) was too low to allow quantification. EtOH is used clinically as a solubilizer for insoluble drugs such as taxol and pacritaxel. When the solutions were shaken at 37 °C, hydrolysis of the ester moiety occurred, and therefore the suspensions were shaken at 4 °C.

LogP = assay type: physicochemical
From the text: LogP values of all analogs were higher than that of 1, as expected. […] The observation that the measured crystal densities of 3b, 4a and (R)-4c were lower than that of 1 supports this idea.

[2] = Membrane permeability by retention on IAM column; assay type: in vitro ADME; settings: IAM.PC.DD2 column, 0.1 M phosphate buffer (pH 6.8) in 60% CH3CN, 1.0 mL/min, 37 °C
Experimental: Membrane permeability was determined by HPLC on an IAM.PC.DD2 column (Regis Technologies, Inc., 10 μm, 300 Å, 30 mm × 4.6 mm) eluted with mobile phase consisting of 0.1 M phosphate buffer (pH 6.8) and CH3CN (4:6) at a flow rate of 1.0 mL/min, with UV monitoring at 254 nm, 37 °C.
Firstly, we evaluated membrane permeability by using an Immobilized Artificial Membrane (IAM) column, which contains silica gel bearing phosphatidylcholine and widely utilized to predict membrane permeability[31],[32].

[3] = tested on: human cryopreserved hepatocytes; assay: Metabolic rate of prodrugs in human cryopreserved hepatocytes; assay type: in vitro ADME; settings: human hepatocytes 1.0×10^6 cells/mL, 50 μM, 2 h, 37 °C
Experimental: The metabolic rate of prodrugs was evaluated using human cryopreserved hepatocytes (Table 3). Although the metabolic rate of 3d with a bulky acyl group was decreased, most of the asymmetric structural analogs, including those with improved aqueous solubility (3b, 4a, (R)-4c), were metabolized to the active form as quickly as 1. Thus, we concluded that the chemical modifications applied here had little effect on the metabolic rate.
(§1) Test compounds (final 50 μM) in DMSO (final 0.5%) were added to a suspension of human hepatocytes (HMCS1S, Thermo Fisher Scientific) at a density of 1.0×10^6 cells/mL. The cells were incubated at 37 °C in humidified incubator (5% CO2) for 2 h, and then acetonitrile was added to stop the reaction. The mixture was vortexed and centrifuged at 15000 rpm for 10 min. HPLC analysis of the supernatant was performed on an analytical column (ODS reversed-phase column, 5 μm, 4.6 mm x 150 mm) eluted with a mobile phase consisting of H2O and CH3CN at a flow rate of 1.0 mL/min at 37 °C, with UV monitoring at 254 nm. Because some analogs were hydrolyzed in the absence of hepatocytes, we also evaluated the hydrolysis rate without hepatocytes.

[4] = Hydrolysis of prodrugs without hepatocytes; assay type: in vitro ADME; settings: 50 μM, 2 h, 37 °C
Experimental: as §1

ERα = target: T1, ERα (Homo sapiens, UniProt P03372); assay: Luciferase reporter gene assay, ERα antagonistic activity; assay type: cell-based; settings: HEK 293 cells, GAL4N-human ERα ligand binding domain, with 0.3 nM estradiol, 24 h; mean ± SD
T1 construct: expressed in transfected cells; host or cells: HEK 293 cells
T1 sequence (P03372 311-547 limits assumed): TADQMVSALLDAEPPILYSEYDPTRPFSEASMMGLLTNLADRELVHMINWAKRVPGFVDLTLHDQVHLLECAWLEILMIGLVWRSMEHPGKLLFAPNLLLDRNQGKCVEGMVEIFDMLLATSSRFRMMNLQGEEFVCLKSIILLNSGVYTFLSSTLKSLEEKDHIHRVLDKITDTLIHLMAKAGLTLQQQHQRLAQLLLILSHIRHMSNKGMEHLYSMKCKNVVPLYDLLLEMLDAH
Experimental: (§2) HEK 293 cells were cultured in DMEM supplemented with 10% FBS and penicillin and streptomycin at 37 °C in a humidified incubator (5% CO2).
(§3) HEK 293 cells were plated at 20% confluence in a 96-well plate at 24 h prior to transfection. Transfection of plasmids (CMX-GAL4N-human ERα/β ligand binding domain, TK-MH100x4-Luc, CMX-β-galactosidase) was performed by the calcium phosphate coprecipitation method. Test compounds in DMSO (final 0.5%) were added at 24 h after transfection, together with 0.3 nM estradiol. The plate was incubated for 24 h, then luciferase substrate solution was added to each well and luminescence was measured on an EnVision microplate reader. β-Galactosidase was added and the absorbance was measured on the microplate reader with emission detection at 405 nm. Each sample was evaluated in triplicate for two times and the mean value was calculated. A six-point sigmoidal dose-response curve was generated for each compound. The IC50 value for each compound was calculated by Origin software. In Table 4, biological reproducibility is reported as the mean IC50 SD.

ERβ = target: T2, ERβ (Homo sapiens, UniProt Q92731); assay: Luciferase reporter gene assay, ERβ antagonistic activity; assay type: cell-based; settings: HEK 293 cells, GAL4N-human ERβ ligand binding domain, with 0.3 nM estradiol, 24 h; mean ± SD
T2 construct: expressed in transfected cells; host or cells: HEK 293 cells
Experimental: as §2, §3

[5] = Aqueous solubility in 0.067 M phosphate buffer pH 7.4; assay type: physicochemical
Experimental: Cyclofenil (1) is an antagonist of estrogen receptors (ER) α and β that is clinically used to treat menstrual disturbances, anovulatory infertility and menopausal symptoms (Fig. 1). However, 1 has poor aqueous solubility (< 1 μg/mL in 0.067 M phosphate buffer pH 7.4). We considered that this low solubility might be due to the symmetric structure (σ = 2, point group: C2v), and we hypothesized that chemical modification of 1 to an asymmetric structure (point group: Cs and C1) would improve the aqueous solubility. To investigate the relationship between molecular shape (symmetry) and aqueous solubility, we focused on a small chemical modification, that is, introduction of a hydrophobic alkyl group. Cyclofenil (1) is a prodrug that is hydrolyzed by esterases after administration, and the active form is diol 2. Therefore, we initially considered that replacement of an acetyl group on 1 with a different acyl group (3a–d) might improve the aqueous solubility without loss of biological activity. As a second approach, we designed methylated analogs 4a–c substituted at the 2-/3-position of the phenyl group or the 3-position of the cyclohexyl group, respectively. We also designed symmetrical analogs 5a–c and 6 for comparison.

[6] = Crystal density (X-ray crystallography); assay type: physicochemical; settings: measured crystal density
[7] = phosphate buffer (pH 6.8)/EtOH (6:4)

T2 sequence (Q92731 264-498 limits assumed): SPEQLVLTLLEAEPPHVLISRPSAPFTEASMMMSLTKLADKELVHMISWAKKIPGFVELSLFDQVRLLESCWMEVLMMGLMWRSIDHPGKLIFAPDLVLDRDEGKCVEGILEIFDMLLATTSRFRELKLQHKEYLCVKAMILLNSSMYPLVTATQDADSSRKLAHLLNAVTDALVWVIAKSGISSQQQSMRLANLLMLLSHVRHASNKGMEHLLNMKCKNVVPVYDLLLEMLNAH

SMILES | IC50 (ERα) [nM] | IC50 (ERβ) [nM] | solubility [5] [µg/mL] | Crystal density [6] [g/mL] | Fold more soluble than 1 ([1]; relative to cyclofenil (1), phosphate buffer (pH 6.8)/EtOH (6:4)) [fold] | solubility at 48 h [1] [µg/mL] | logP (LogP) | Retention time on IAM column [2] [min] | Hydrolysis rate with hepatocytes [3] [%] | Hydrolysis rate without hepatocytes [4] [%] | melting point [°C] | Fold more soluble than symmetric isomer 6 [1, 7] [fold] | Fold more soluble than symmetric isomer 5a ([1]; relative to 5a, phosphate buffer (pH 6.8)/EtOH (6:4)) [fold]
CCC(=O)Oc1ccc(C(=C2CCCCC2)c2ccc(OC(C)=O)cc2)cc1 [Compound 3a, 4-((4-Acetoxyphenyl)(cyclohexylidene)methyl)phenylpropionate] | – | – | – | – | – | 3.38 (≈ 8.93 µM) | 5.48 | 4.22 | 100 | 15.8 | 132.8 | – | –
C[C@@H]1CCCC(=C(c2ccc(O)cc2)c2ccc(O)cc2)C1 [(R)-13a, (R)-4,4’-((3-Methylcyclohexylidene)methylene)diphenol] | 16 ± 0.71 | 4.5 ± 0.57 | – | – | – | – | – | – | – | – | – | – | –
CC(=O)Oc1ccc(C(=C2CCCCC2)c2ccc(OC(C)=O)cc2)cc1 [Compound 1, cyclofenil] | – | – | < 1 | 1.268 | – | 7.76 (≈ 21.3 µM) | 4.91 | 3.15 | 100 | 14.8 | – | – | –
CC(=O)Oc1ccc(C(=C2CCCCC2)c2ccc(OC(C)=O)cc2C)cc1 [Compound 4b, 4-((4-Acetoxy-2-methylphenyl)(cyclohexylidene)methyl)phenylacetate] | – | – | – | – | – | 23.6 (≈ 62.4 µM) | 5.12 | – | – | – | 99.9 | 6.5 | –
CCC(=O)Oc1ccc(C(=C2CCCCC2)c2ccc(OC(=O)CC)cc2)cc1 [Compound 5a, (Cyclohexylidenemethylene)bis(4,1-phenylene)dipropionate] | – | – | – | – | – | 0.622 (≈ 1.58 µM) | 6.02 | – | – | – | 139 | – | –
Oc1ccc(C(=C2CCCCC2)c2ccc(O)cc2)cc1 [Compound 2, Bis(4-hydroxyphenyl)methylenecyclohexane, reference compound] | 13 ± 7.5 | 4.5 ± 0.99 | – | – | – | – | – | – | – | – | – | – | –
CC(=O)Oc1ccc(C(=C2CCC[C@@H](C)C2)c2ccc(OC(C)=O)cc2)cc1 [(R)-4c, (R)-((3-Methylcyclohexylidene)methylene)bis(4,1-phenylene)diacetate] | – | – | – | 1.227 | 3.6 | 27.8 (≈ 73.5 µM) | 5.34 | 3.93 | 100 | 13.8 | 92 | 7.7 | –
CC(=O)Oc1ccc(C(=C2CCCCC2)c2ccc(OC(=O)C(C)C)cc2)cc1 [Compound 3c, 4-((4-Acetoxyphenyl)(cyclohexylidene)methyl)phenylisobutyrate] | – | – | – | – | – | 0.719 (≈ 1.83 µM) | 6.01 | 5.93 | 94.5 | 0 | 136.5 | – | –
CC(=O)Oc1ccc(C(=C2CCC(C)CC2)c2ccc(OC(C)=O)cc2)cc1 (stereo not shown) [Compound 6, ((4-Methylcyclohexylidene)methylene)bis(4,1-phenylene)diacetate] | – | – | – | 1.243 | – | 3.61 (≈ 9.54 µM) | 5.41 | – | – | – | 137 | – | –
CCCC(=O)Oc1ccc(C(=C2CCCCC2)c2ccc(OC(C)=O)cc2)cc1 [Compound 3b, 4-((4-Acetoxyphenyl)(cyclohexylidene)methyl)phenylbutyrate] | – | – | – | 1.236 | – | 10.8 (≈ 27.5 µM) | 6 | 5.97 | 92.1 | 6.3 | 69 | – | 17.3
CC(=O)Oc1ccc(C(=C2CCCCC2)c2ccc(OC(C)=O)c(C)c2)cc1 [Compound 4a, 4-((4-Acetoxy-3-methylphenyl)(cyclohexylidene)methyl)phenylacetate] | – | – | – | – | – | 10.3 (≈ 27.2 µM) | 5.26 | 3.72 | 100 | 0 | 114 | 2.9 | –
CC(=O)Oc1ccc(C(=C2CCCCC2)c2ccc(OC(=O)C(C)(C)C)cc2)cc1 [Compound 3d, 4-((4-Acetoxyphenyl)(cyclohexylidene)methyl)phenylpivalate] | – | – | – | – | – | 2.25 (≈ 5.53 µM) | 6.5 | 8.44 | 77.7 | 0 | 127 | – | –
CC(C)C(=O)Oc1ccc(C(=C2CCCCC2)c2ccc(OC(=O)C(C)C)cc2)cc1 [Compound 5c, (Cyclohexylidenemethylene)bis(4,1-phenylene)bis(2-methylpropanoate)] | – | – | – | – | – | 0.0811 (≈ 0.193 µM) | 7.16 | – | – | – | 129 | – | –

Continued, in another order:

IC50 (ERα) [nM] | IC50 (ERβ) [nM] | solubility [5] [µg/mL] | Crystal density [6] [g/mL] | Fold more soluble than 1 ([1]; relative to cyclofenil (1), phosphate buffer (pH 6.8)/EtOH (6:4)) [fold] | SMILES | solubility at 48 h [1] [µg/mL] | logP (LogP) | Retention time on IAM column [2] [min] | Hydrolysis rate with hepatocytes [3] [%] | Hydrolysis rate without hepatocytes [4] [%] | melting point [°C] | Fold more soluble than symmetric isomer 6 [1, 7] [fold] | Fold more soluble than symmetric isomer 5a ([1]; relative to 5a, phosphate buffer (pH 6.8)/EtOH (6:4)) [fold]
– | – | – | 1.244 | – | CCCC(=O)Oc1ccc(C(=C2CCCCC2)c2ccc(OC(=O)CCC)cc2)cc1 [Compound 5b, (Cyclohexylidenemethylene)bis(4,1-phenylene)dibutyrate] | 0.964 (≈ 2.29 µM) | 7.08 | – | – | – | 80.9 | – | –
120 ± 7.1 | 51 ± 40 | – | – | – | Cc1cc(C(=C2CCCCC2)c2ccc(O)cc2)ccc1O [Compound 10a, 4-(Cyclohexylidene(4-hydroxyphenyl)methyl)-2-methylphenol] | – | – | – | – | – | – | – | –

Source: article PMC8209153, “Improvement in aqueous solubility of achiral symmetric cyclofenil by modification to a chiral asymmetric analog” (Scientific Reports, 2021)
